The results in this text go back to US12016864B2, “LOX enzyme inhibiting methods and compositions” (ANOVIA BIOSCIENCES, INC., priority 2021, dated 2024).

Assay [1] deals with T1, Bovine lysyl oxidase (LOX) (Bos taurus, UniProt P33072).
T1 construct: from tissue; host or cells: adult bovine tendon
T1 sequence (P33072 170-418): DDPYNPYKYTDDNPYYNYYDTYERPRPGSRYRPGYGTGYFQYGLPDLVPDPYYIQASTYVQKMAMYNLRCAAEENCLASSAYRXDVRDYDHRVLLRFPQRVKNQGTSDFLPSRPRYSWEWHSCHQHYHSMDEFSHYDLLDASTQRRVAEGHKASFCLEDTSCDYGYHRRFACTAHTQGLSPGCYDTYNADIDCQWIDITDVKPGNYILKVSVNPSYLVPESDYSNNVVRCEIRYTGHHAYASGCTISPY
Briefly: LOX inhibition assay, fluorometric (cadaverine / HRP / Amplex Red). The assay is classed as biochemical. Particulars: LOX extracted from bovine tendon; 30 min preincubation at 37° C.; 5 mM cadaverine; read-out: Activity Range LOX. Here is the method: The ability of compounds to inhibit prototypic LOX was determined using a fluorometric assay. This assay measures the activity of lysyl oxidases by coupling the reaction with horseradish peroxidase-catalyzed […]. The activity assay protocol uses cadaverine as substrate that releases hydrogen peroxide upon transformation by prototypic LOX enzyme present in the sample. Hydrogen peroxide was in turn detected using a red fluorescence substrate for HRP-coupled reactions (Amplex Red Enzyme Assays, Thermo Scientific Fisher). This lead to an increase in fluorescence that can be easily detected at Ex/Em=540/590 nm in a fluorescence microplate
Bovine lysyl oxidase (LOX) was extracted by adapting the methodology from [Kagan et al. 1979 and Borel et al. 2001.] from bovine tendon: Frozen adult bovine tendon was placed in room temperature water to defrost, and then membranes were removed and the remaining tissue cut into 1 cm pieces. The material was first passed through a course mesh meat grinder, and this mince was passed through a fine mesh grinder. The mince was homogenized in 10 v/w of buffer (16 mM sodium phosphate buffer pH 7.8, 400 mM NaCl) using a Waring blender. The homogenate was centrifuged at 15,000×g for 15 min at 4° C. After centrifugation, the supernatant was discarded and the pellets resuspended in 10 volumes of the same buffer. The mixture was blended again and centrifuged with the same settings. This time the pellets were blended in 3 volumes of extraction buffer (16 mM sodium phosphate buffer pH 7.8) and left to incubate at 4° C. for 2 h. After this time, the slurry was centrifuged with the same settings as described above. The supernatant was used in an ultrafiltration step to remove large proteins by size exclusion through a 30 kDalton filter (EMD Millipore). The filtrate was mixed with DEAE Sephadex (GE Healthcare), or passed over a MonoQ FPLC column. After two washes, one in 16 mM sodium phosphate buffer pH 7.8, 380 mM NaCl, and another in 16 mM sodium phosphate buffer pH 7.8, the proteins were eluted with 16 mM sodium phosphate pH 7.8, 10 μM CuSO4, and 4 M urea. Fractions containing Lox activity were collected and stored frozen at −70° C.
Final concentration in the LOX assay is shown in Table 6 below and performed in a total volume of […].
7 μl of freshly prepared reaction buffer were delivered to reaction wells. Compounds were resuspended in 100% DMSO at 10 mM and delivered into buffer using acoustic technology (Echo550; nanoliter range). A 2.85× solution of LOX protein in reaction buffer was prepared (“LOX solution”) and 7 μl of LOX solution was added into the reaction wells. Buffer only was added to column 1 for no protein control. Reactions were incubated for 30 minutes at 37° C. A 3.33× mixture of cadaverine, Amplex Red, and HRP (“Substrate/Detection Mix) was prepared and subsequently 6 μL of the mixture was added to each reaction well. Progress of reactions was monitored for 120 minutes at 37° C. using Clariostar plate reader (ex530-12, ems 600-40). For all activity assays, pan-LOX inhibitor CCT365623 (Tang et al, 2017) and LOXL2/LOXL3 inhibitor PAT-1251 (PharmaKea) were included as standards.
The slope of the linear portion of the progress curve was calculated using Clariostar software. Typical analysis interval was between 20-50 min, but varied between experiments. The background subtracted signals (No protein wells were considered as background) were converted to % activity relative to DMSO controls. Data was analyzed using GraphPad Prism 4 with “sigmoidal dose-response (variable slope)”; 4 parameters with Hill Slope. Constraints: Bottom=Constant equal to 0. Top=Must be less than 120.

The target in assay [2] is T2, Recombinant human LOXL2 (lysyl oxidase like 2) (Homo sapiens, UniProt Q9Y4K0).
T2 construct: purchased R&D systems
T2 sequence (Q9Y4K0 26-774): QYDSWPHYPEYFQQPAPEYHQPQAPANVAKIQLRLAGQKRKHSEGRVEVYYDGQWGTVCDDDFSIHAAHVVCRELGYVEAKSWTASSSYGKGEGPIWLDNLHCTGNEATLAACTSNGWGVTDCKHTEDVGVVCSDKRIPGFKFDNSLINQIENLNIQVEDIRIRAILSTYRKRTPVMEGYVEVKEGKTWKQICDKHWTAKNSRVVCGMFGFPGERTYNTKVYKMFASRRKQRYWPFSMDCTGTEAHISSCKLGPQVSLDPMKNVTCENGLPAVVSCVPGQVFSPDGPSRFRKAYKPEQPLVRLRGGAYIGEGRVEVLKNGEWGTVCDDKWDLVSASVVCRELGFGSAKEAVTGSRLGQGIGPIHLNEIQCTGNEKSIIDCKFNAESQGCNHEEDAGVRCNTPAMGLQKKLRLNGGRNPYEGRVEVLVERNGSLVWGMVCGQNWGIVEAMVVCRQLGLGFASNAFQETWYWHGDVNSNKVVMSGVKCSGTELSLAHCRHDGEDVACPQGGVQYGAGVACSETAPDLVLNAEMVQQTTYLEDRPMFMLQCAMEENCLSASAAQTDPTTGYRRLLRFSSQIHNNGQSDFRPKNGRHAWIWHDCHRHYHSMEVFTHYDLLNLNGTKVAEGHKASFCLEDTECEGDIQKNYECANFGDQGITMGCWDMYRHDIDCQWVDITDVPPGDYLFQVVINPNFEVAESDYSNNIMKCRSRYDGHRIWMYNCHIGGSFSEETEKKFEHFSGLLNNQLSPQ
Briefly: LOXL2 inhibition assay, fluorometric (cadaverine / HRP / Amplex Red). In kind it is biochemical. Particulars: recombinant human LOXL2 130 nM; 30 min preincubation at 37° C.; 2.5 mM cadaverine; read-out: Activity Range LOXL2. As to the method: The ability of compounds to inhibit one or more of the lysyl oxidases LOXL2 and/or LOXL3 was determined using a fluorometric assay. This assay measures the activity of lysyl oxidases by coupling the reaction with horseradish peroxidase-catalyzed […]. The activity assay protocol uses cadaverine as substrate that releases hydrogen peroxide upon transformation by the specific LOX family enzyme present in the sample. Hydrogen peroxide is in turn detected using a red fluorescence substrate for HRP-coupled reactions (Amplex Red Enzyme Assays, Thermo Scientific Fisher). This leads to increase in fluorescence that can be easily detected at Ex/Em=540/590 nm in a fluorescence microplate reader.
Recombinant human LOXL2 (lysyl oxidase like 2) and recombinant human LOXL3 (lysyl oxidase like 3) were purchased from R&D systems and assays were performed in 1.2 M urea, 50 mM sodium borate buffer pH 8.0, and 10 mM CaCl.
5 μl of freshly prepared reaction buffer were delivered to reaction wells. Compounds were resuspended in 100% DMSO at 10 mM and delivered into buffer using acoustic technology (Echo550; nanoliter range). A 3× solution of LOXL2 or LOXL3 in reaction buffer was prepared (“enzyme solution”) and 5 μL of enzyme solution was added into the reaction wells. Buffer only was added to column 1 for no protein control. Reactions were incubated for 30 minutes at 37° C. A 3× mixture of cadaverine, Amplex Red, and HRP (“Substrate/Detection Mix) was prepared and subsequently 5 μL of the mixture added to each reaction well. Progress of reactions was monitored for 60 minutes at 37° C. using Clariostar plate reader (ex 530-12, ems 600-40). For all activity assays, pan-LOX inhibitor CCT365623 (Tang et al, 2017) and LOXL2/LOXL3 inhibitor PAT-1251 (PharmaKea) were included as standards.
For the data analysis, the slope of the linear portion of the progress curve was calculated using Clariostar software. Typical analysis interval was between 8-30 min, but varied between experiments. The background-subtracted signals (No protein wells are considered as background) were converted to % activity relative to DMSO controls. Data was analyzed using GraphPad Prism 4 with “sigmoidal dose-response (variable slope)”; 4 parameters with Hill Slope. Constraints: Bottom=Constant equal to 0. Top=Must be less than 120.

Each structure is given as a SMILES string.

As to `CS(=O)(=O)N1C[C@@H](c2ccccc2)C[C@H]1CS(=O)(=O)c1ccc(CN)cc1` (racemic) [Example 26, cis-(4-(((1-(Methylsulfonyl)-4-phenylpyrrolidin-2-yl)methyl)sulfonyl)phenyl)methanamine 2,2,2-trifluoroacetate], the IC50 in assay [1] was 1 to 30 µM; in assay [2] it was ≤ 0.5 µM. For `CS(=O)(=O)N1C[C@@H](c2ccccc2)C[C@H]1CS(=O)(=O)c1cccc(CN)c1` (racemic) [Example 27, cis-(3-(((1-(Methylsulfonyl)-4-phenylpyrrolidin-2-yl)methyl)sulfonyl)phenyl)methanamine 2,2,2-trifluoroacetate] the same measures were 1 to 30 µM and ≤ 0.5 µM.

As to `NCc1ccnc(S(=O)(=O)C[C@@H]2C[C@H](c3ccccc3F)CN2S(=O)(=O)N2CCOCC2)c1` (racemic) [Example 203, cis-(2-(((4-(2-fluorophenyl)-1-(morpholinosulfonyl)pyrrolidin-2-yl)methyl)sulfonyl)pyridin-4-yl)methanamine 2,2,2-trifluoroacetate], the IC50 is 1 to 30 µM in assay [1] and ≤ 0.5 µM in assay [2]. `NCc1ccnc(S(=O)(=O)C[C@@H]2C[C@H](c3ccc(F)cc3)CN2S(=O)(=O)N2CCOCC2)c1` (racemic) [Example 204, cis-(2-(((4-(4-fluorophenyl)-1-(morpholinosulfony1)pyrrolidin-2-yl)methyl)sulfonyl)pyridin-4-yl)methanamine 2,2,2-trifluoroacetate]: the IC50 in assay [1] is 1 to 30 µM; in assay [2] it was ≤ 0.5 µM. For `NCc1ccnc(S(=O)(=O)C[C@@H]2C[C@H](c3ccc(F)cc3)CN2S(=O)(=O)N2CCS(=O)(=O)CC2)c1` (racemic) [Example 206, cis-4-((2-(((4-(Aminomethyl)pyridin-2-yl)sulfonyl)methyl)-4-(4-fluorophenyl)pyrrolidin-1-yl)sulfonyl)thiomorpholine 1,1-dioxide 2,2,2-trifluoroacetate], the results for the IC50 in assay [1] and in assay [2] were 1 to 30 µM and ≤ 0.5 µM, respectively. The matching figures for `NCc1ccc(S(=O)(=O)C[C@@H]2C[C@H](c3ccccc3F)CN2S(=O)(=O)N2CCOCC2)s1` (racemic) [Example 207, cis-(5-(((4-(2-Fluorophenyl)-1-(morpholinosulfonyl)pyrrolidin-2-yl)methyl)sulfonyl)thiophen-2-yl)methanamine 2,2,2-trifluoroacetate]: ≤ 0.5 µM and ≤ 0.5 µM. `NCc1ccc(S(=O)(=O)C[C@@H]2C[C@H](c3ccc(F)cc3)CN2S(=O)(=O)N2CCOCC2)s1` (racemic) [Example 208, cis-(5-(((4-(4-Fluorophenyl)-1-(morpholinosulfonyl)pyrrolidin-2-yl)methyl)sulfonyl)thiophen-2-yl)methanamine 2,2,2-trifluoroacetate]: the IC50 in assay [1] and in assay [2] was ≤ 0.5 µM each time. Consider `NCc1ccnc(OC[C@@H]2C[C@H](C3CCCCC3)CN(S(=O)(=O)N3CCOCC3)C2)c1` (relative stereo) [Example 231, cis-(2-((5-Cyclohexyl-1-(morpholinosulfonyl)piperidin-3-yl)methoxy)pyridin-4-yl)methanamine 2,2,2-trifluoroacetate], for which the IC50 in assay [2] is ≤ 0.5 µM. As to `NCc1ccnc(S(=O)(=O)C[C@@H]2C[C@H](C3CCCCC3)CN(S(=O)(=O)N3CCS(=O)(=O)CC3)C2)c1` (relative stereo) [Example 234, cis-4-((3-(((4-(Aminomethyl)pyridin-2-yl)sulfonyl)methyl)-5-cyclohexylpiperidin-1-yl)sulfonyl)thiomorpholine 1,1-dioxide 2,2,2-trifluoroacetate], the IC50 in assay [2] is ≤ 0.5 µM.

Turning to `NCc1ccnc(S(=O)(=O)C[C@H]2C[C@H](C3CCCCC3)CN(S(=O)(=O)N3CCS(=O)(=O)CC3)C2)c1` (relative stereo) [Example 234T, trans-4-((3-(((4-(Aminomethyl)pyridin-2-yl)sulfonyl)methyl)-5-cyclohexylpiperidin-1-yl)sulfonyl)thiomorpholine 1,1-dioxide 2,2,2-trifluoroacetate], the IC50 in assay [2] is ≤ 0.5 µM.

On to `NCc1ccnc(OC[C@H]2C[C@H](C3CCCCC3)CN(S(=O)(=O)N3CCOCC3)C2)c1` [Example 231T, trans-(2-(((3S,5R)-5-cyclohexyl-1-(morpholinosulfonyl)piperidin-3-yl)methoxy)pyridin-4-yl)methanamine], for which the IC50 in assay [2] was ≤ 0.5 µM.
